Strand notation (5' to 3'): a small letter for the sugar, then the base; units joined by * are phosphorothioate-linked, units joined directly phosphodiester-linked; [ ] holds rarer units or linkages, { } end groups; capitals alone tell only the bases. Where no end group is shown, it is not given here. [ ]: non-standard residue; d: D form. {NH2C6-invAb} = cap: inverted abasic residue carrying an aminohexyl phosphate (attachment handle); [invAb] = inverted abasic unit; TGN = not defined here; m = 2'-O-methyl; f = 2'-fluoro
Assays:
CTNNB1 = assay: In vivo evaluation in mice: liver mRNA knockdown measurement (TaqMan qPCR); design: species or system CD-1 mice; details: mice
Method: (§1) Female CD-1 mice (Charles River) were injected in accordance with either a sequential dosing paradigm or a co-dosing paradigm. In the sequential dosing paradigm, the targeted siRNA (SCE) is dosed at t=0 and the targeted peptide is separately dosed up to 2 hr before the SCE (−2 hr) or up to 24 hr after the SCE (+24 hr). In the co-dosing paradigm, the SCE and peptides are co-formulated and dosed together in the same formulation as a single injection at t=0. The mice were dosed either by intravenous (i.v.) or subcutaneous (s.c.) injection of SCE and peptide. For the i.v. doses, the compounds were injected into the tail vein of the mice. For the s.c. doses, the compounds were injected in the subcutaneous space on the back of the mouse between the shoulder blades. At the indicated harvest times (measured from t=0 when the siRNA was dosed, regardless of when the peptide was dosed), the animals were sacrificed and 3 mm liver punches were collected, preserved in RNAlater (Ambion), and stored at 4° C. Separate 5 mm liver punches were collected, placed in 96-well plates, frozen on dry ice, and stored at −80° C. until use.
The 3 mm liver punches were removed from RNAlater and homogenized in Trizol (Invitrogen) using a bead mill tissue lyser (Qiagen); disruption was performed for two 5-minute cycles at 30 Hz. RNA extraction was performed using 1-bromo-2-chloropropane (Acros Organics) and total RNA was isolated from the aqueous phase using the MagMax RNA isolation method (Ambion). […] TaqMan qPCR analysis was performed with an ABI 7900 Real-Time PCR System using TaqMan Fast Advanced Master Mix (Applied Biosystems). All TaqMan probes and primers for CTNNB1 and PPIB (housekeeping gene) were purchased from Applied Biosystems as pre-validated gene expression assays. Results are calculated by the comparative Ct method, where the difference between the CTNNB1 Ct value and the PPIB Ct value (ΔCt) is calculated and then further normalized relative to the PBS control by taking a second difference (ΔΔCt), as described previously (1).

[1] = Lethality observed in the in vivo evaluation in mice; design: species or system CD-1 mice; key to lethal at this dose (asterisk at targeted peptide dose): *: lethal at this dose
Method: as §1

[2] = siRNA metabolic stability (FIG. 6 legend); details: order siRNA-I>siRNA-V>siRNA-VI
[3] = Table 6, sequential, peptide IV 15 min after siRNA IV, TGN-L-siRNA-III 0.5 mg/kg, peptide 2 mg/kg
[4] = Table 6, sequential, peptide IV 15 min after siRNA IV, TGN-L-siRNA-III 0.5 mg/kg, peptide 10 mg/kg
[5] = Table 6, sequential, peptide IV 15 min after siRNA IV, TGN-L-siRNA-III 0.5 mg/kg, peptide 25 mg/kg
[6] = Table 6, TGN-L-siRNA-III 0.5 mg/kg IV, peptide 25 mg/kg IV 15 min after siRNA
[7] = Table 6, TGN-L-siRNA-III 0.25 mg/kg IV, peptide 10 mg/kg IV 15 min after siRNA
[8] = Table 6, sequential, peptide IV 15 min after siRNA IV, TGN-L-siRNA-III 0.25 mg/kg, peptide 10 mg/kg
[9] = Table 6, sequential, peptide IV 15 min after siRNA IV, TGN-L-siRNA-III 0.25 mg/kg, peptide 5 mg/kg
[10] = Table 6, sequential, peptide IV 15 min after siRNA IV, TGN-L-siRNA-II 0.25 mg/kg, peptide 1 mg/kg
[11] = Table 6, sequential, peptide IV 15 min after siRNA IV, TGN-L-siRNA-II 0.25 mg/kg, peptide 3 mg/kg

TGN-S-S-SEQ ID NO: 1248 (D) (C[dF][dL][dE][dE][dL][dW][dE][dL][dL][dE][dH][dL][dL]; not fully specified (residue 1); listed as Homo sapiens)
In vivo mRNA knockdown (%) (CTNNB1; [3]): 42% | In vivo mRNA knockdown (%) (CTNNB1; [4]): 74% | In vivo mRNA knockdown (%) (CTNNB1; [5]): 58% | lethal at this dose (asterisk at targeted peptide dose) [1, 6]: 25*

TGN-S-S-SEQ ID NO: 1419 (D) (C[dF][dL][dE][dE][dL][dW]G[dL][dL][dE][dH][dL][dL]; not fully specified (residue 1); listed as Homo sapiens)
In vivo mRNA knockdown (%) (CTNNB1; [3]): 43% | In vivo mRNA knockdown (%) (CTNNB1; [4]): 78% | In vivo mRNA knockdown (%) (CTNNB1; [5]): 76% | lethal at this dose (asterisk at targeted peptide dose) [1, 6]: 25*

TGN-S-S-SEQ ID NO: 1628 (D) ([dC]G[dL][dL][dA][dI]X[dE][dI][dE][dE][dL][dL][dE][dE]G[dL][dE][dN][dL][dI][dD][dW][dW][dN][dS]; not fully specified; also: TGN via disulfide; listed as Homo sapiens)
Mortality (words printed in the knockdown column) [1, 7]: All mice died | lethal at this dose (asterisk at targeted peptide dose) [1, 7]: 10*

TGN-S-S-SEQ ID NO: 1654 (D) (CG[dL][dL][dE][dE][dI][dE][dE][dL][dL][dE][dE]G[dL][dE][dN][dL][dI][dD][dW]G[dN][dS]; not fully specified (residue 1); listed as Homo sapiens)
In vivo mRNA knockdown (%) (CTNNB1; Table 6, sequential, peptide IV 15 min after siRNA IV, TGN-L-siRNA-III 0.25 mg/kg, peptide 2 mg/kg): 51% | In vivo mRNA knockdown (%) (CTNNB1; [8]): 72% | In vivo mRNA knockdown (%) (CTNNB1; Table 6, sequential, peptide IV 15 min after siRNA IV, TGN-L-siRNA-III 0.25 mg/kg, peptide 50 mg/kg): 65% | lethal at this dose (asterisk at targeted peptide dose) ([1]; Table 6, TGN-L-siRNA-III 0.25 mg/kg IV, peptide 50 mg/kg IV 15 min after siRNA): 50*

TGN-S-S-SEQ ID NO: 1731(D): TGN-S-S-peptide, peptide CGIGAVLHVLTTGLPALISWIHHHHQQ
In vivo mRNA knockdown (%) (CTNNB1; [8]): 30%

TGN-S-S-SEQ ID NO: 1732 (D): TGN-S-S-peptide, peptide AC-GIFEAIAGLLKINFKC
In vivo mRNA knockdown (%) (CTNNB1; [9]): 35%

TGN-S-S-SEQ ID NO: 1733 (D): TGN-S-S-peptide, peptide AC-GLFGALAEALAEALAEHLAEALAEALEALAAGGSC
In vivo mRNA knockdown (%) (CTNNB1; [10]): 60% | In vivo mRNA knockdown (%) (CTNNB1; [11]): 75% | In vivo mRNA knockdown (%) (CTNNB1; Table 6, sequential, peptide IV 15 min after siRNA IV, TGN-L-siRNA-II 0.25 mg/kg, peptide 10 mg/kg): 58% | In vivo mRNA knockdown (%) (CTNNB1; Table 6, sequential, peptide IV 15 min after siRNA IV, TGN-L-siRNA-II 0.25 mg/kg, peptide 50 mg/kg): 50% | In vivo mRNA knockdown (%) (CTNNB1; [9]): 73% | In vivo mRNA knockdown (%) (CTNNB1; Table 7, TGN-L-siRNA-II 0.25 mg/kg, peptide 3 mg/kg, Sequential dosing-IV (peptide 15 min after siRNA)): 69% | In vivo mRNA knockdown (%) (CTNNB1; Table 7, TGN-L-siRNA-II 0.25 mg/kg, peptide 3 mg/kg, Sequential dosing-SC (peptide 15 min after siRNA)): 47% | In vivo mRNA knockdown (%) (CTNNB1; Table 7, TGN-L-siRNA-II 0.25 mg/kg, peptide 10 mg/kg, Sequential dosing-IV (peptide 15 min after siRNA)): 58% | In vivo mRNA knockdown (%) (CTNNB1; Table 7, TGN-L-siRNA-II 0.25 mg/kg, peptide 10 mg/kg, Sequential dosing-SC (peptide 15 min after siRNA)): 67%

TGN-S-S-SEQ ID NO: 1734 (D): TGN-S-S-peptide, peptide AC-GLFEAIEGFIENGWEGLAELAEALEALAAGGSC
In vivo mRNA knockdown (%) (CTNNB1; [9]): 61%

TGN-S-S-SEQ ID NO: 1738 (D) (G[dL][dF]G[dE][dI][dE][dE][dL][dI][dE][dE]G[dL][dE][dN][dL][dI][dD][dW]G[dN]G[dL][dA][dE][dL][dA][dE][dA][dL][dE][dA][dL][dA][dA]GG[dS][dC]; not fully specified; also: disulfide to TGN peptide via C-terminal Cys; listed as Homo sapiens)
In vivo mRNA knockdown (%) (CTNNB1; [10]): 25% | In vivo mRNA knockdown (%) (CTNNB1; [11]): 44%

TGN-S-S-SEQ ID NO: 1740 (D): TGN-S-S-peptide, peptide GLFEAIEGFIENGWEGLAELAEALEALAAGGSC (G[dL][dF][dE][dA][dI][dE]G[dF][dI][dE][dN]G[dW][dE]G[dL][dA][dE][dL][dA][dE][dA][dL][dE][dA][dL][dA][dA]GG[dS][dC]; not fully specified; also: disulfide to TGN peptide via C-terminal Cys; listed as Homo sapiens)
In vivo mRNA knockdown (%) (CTNNB1; [10]): 23% | In vivo mRNA knockdown (%) (CTNNB1; [11]): 42%

TGN-S-S-SEQ ID NO: 1740 (L): TGN-S-S-peptide, peptide GLFEAIEGFIENGWEGLAELAEALEALAAGGSC (GLFEAIEGFIENGWEGLAELAEALEALAAGGSC(TGN); reading uncertain; also: TGN attached via disulfide (S-S); listed as Homo sapiens)
In vivo mRNA knockdown (%) (CTNNB1; [11]): 20%

TGN-S-S-SEQ ID NO: 1741(L): TGN-S-S-peptide, peptide GLFGALAEALAEALAEHLAEALAEALEALAAGGSC (GLFGALAEALAEALAEHLAEALAEALEALAAGGSC(TGN); reading uncertain; also: TGN attached via disulfide (S-S); listed as Homo sapiens)
In vivo mRNA knockdown (%) (CTNNB1; [11]): 24%

TGN-S-S-SEQ ID NO: 1744 (D) ([dC][dE][dE][dN][dW][dI]G[dL][dF]GGG[dN][dI][dW][dE][dE][dE][dE][dI][dL][dD][dL][dL]; also: disulfide to TGN peptide via N-terminal Cys; listed as Homo sapiens)
In vivo mRNA knockdown (%) (CTNNB1; [3]): 28% | In vivo mRNA knockdown (%) (CTNNB1; [4]): 33%

TGN-S-S-SEQ ID NO: 1746 (D): TGN-S-S-peptide, peptide CEALFGKINAIFIGKL ([dC][dE][dA][dL][dF]G[dK][dI][dN][dA][dI][dF][dI]G[dK][dL]; also: disulfide to TGN peptide via N-terminal Cys; listed as Homo sapiens)
In vivo mRNA knockdown (%) (CTNNB1; [3]): 31% | In vivo mRNA knockdown (%) (CTNNB1; [4]): 25%

siRNA-IV: CTNNB1 ds siRNA, passenger SEQ ID NO 1807 (clickA, 5Chol), guide SEQ ID NO 1806 (sense CUGUUGGAUUGAUUCGAAAUU; guide TUUCGAAUCAAUCCAACAGUU; clickA; 5' cholesterol; (1)..(1) aminohexyl phosphate inverted abasic cap; (1)..(2) 2′-O-methyl; (3)..(3) 2′-deoxy-2′-fluoro; (4)..(5) 2′-O-methyl; (6)..(8) 2′-deoxy-2′-fluoro; (9)..(10) 2′-O-methyl; (11)..(12) 2′-deoxy-2′-fluoro; (13)..(15) 2′-O-methyl; (16)..(16) 2′-deoxy-2′-fluoro; (17)..(17) 2′ propagyl; (18)..(19) 2′-deoxy-2′-fluoro; (20)..(21) 2′-O-methyl; (20)..(21) phosphorothioate internucleotide linkage; (21)..; (1)..(1) terminal vinyl phosphate; (1)..(1) 2′-methoxyethoxy; (2)..(21) ribonucleotide unmodified or modified as described for this sequence; (2)..(2) 2′-deoxy-2′-fluoro; …)
In vivo mRNA knockdown (%) (CTNNB1; Table 6, siRNA-IV 0.5 mg/kg IV, peptide dose 0): 25% | In vivo mRNA knockdown (%) (CTNNB1; Table 6, siRNA-IV 2 mg/kg IV, peptide dose 0): 25% | In vivo mRNA knockdown (%) (CTNNB1; Table 6, siRNA-IV 5 mg/kg IV, peptide dose 0): 35%

siRNA-VI: CTNNB1 ds siRNA, passenger SEQ ID NO 1803, guide SEQ ID NO 1809 (sense {NH2C6-invAb}-mCmUfGmUmUfGfGfAmUmUfGfAmUmUmCfGfAfAfAmU*mU[invAb]; guide fUfUfUmCfGfAfAmUmCfAfAmUmCfCfAfAmCfAfGmU*mU)
siRNA stability (metabolic stability) [2]: more unstable

Reference: patent publication US10532068B2, “Dual molecular delivery of oligonucleotides and peptide containing conjugates” (Merck Sharp & Dohme Corp., priority 2013, dated 2020)
